Measurements: US20170280720A1, “ARGININE […] INHIBITORS AND USES THEREOF” (EPIZYME, INC., priority 2014, published 2017)

Target: T1, Human CARM1 (PRMT4) (Homo sapiens, UniProt Q86X55)
T1 construct: Flag-CARM1-His; made in house; host or cells: HEK 293F cells (BacMam baculovirus, pFastBacMam)
T1 sequence (Q86X55 2-585 isoform Q86X55-1): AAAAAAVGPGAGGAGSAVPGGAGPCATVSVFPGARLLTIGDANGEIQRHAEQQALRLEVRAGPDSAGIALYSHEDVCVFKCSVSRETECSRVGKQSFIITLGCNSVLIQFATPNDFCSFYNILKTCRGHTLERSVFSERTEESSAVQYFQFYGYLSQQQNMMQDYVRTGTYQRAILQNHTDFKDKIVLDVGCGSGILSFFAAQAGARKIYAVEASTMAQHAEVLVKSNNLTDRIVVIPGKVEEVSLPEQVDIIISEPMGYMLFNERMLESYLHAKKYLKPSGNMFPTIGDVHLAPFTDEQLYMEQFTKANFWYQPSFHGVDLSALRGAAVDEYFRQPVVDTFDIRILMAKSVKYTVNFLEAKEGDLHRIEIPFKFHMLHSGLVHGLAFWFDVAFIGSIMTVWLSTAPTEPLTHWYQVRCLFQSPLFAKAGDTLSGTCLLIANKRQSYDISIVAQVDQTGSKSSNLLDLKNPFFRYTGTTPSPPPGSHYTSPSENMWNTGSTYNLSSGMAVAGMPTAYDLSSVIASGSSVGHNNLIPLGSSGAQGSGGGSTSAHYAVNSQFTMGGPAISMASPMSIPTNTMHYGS
Assay: CARM1 biochemical assay (3H-SAM Flashplate, peptide substrate)
Details: read-out: CARM1_ IC50
Description: S-adenosylmethionine (SAM), S-adenosylhomocysteine (SAH), bicine, Tween20, dimethylsulfoxide (DMSO), bovine skin gelatin (BSG), sodium butyrate and Tris(2-carboxyethyl)phosphine hydrochloride solution (TCEP) were purchased from Sigma-Aldrich at the highest level of purity possible. ^3H-SAM was purchase from American Radiolabeled Chemicals with a specific activity of 80 Ci/mmol. 384-well streptavidin Flashplates were purchased from PerkinElmer.
Peptide representative of human histone H3 residues 16-30 was synthesized with an N-terminal linker-affinity tag motif and a C-terminal amide cap by 21st Century Biochemicals. The peptide was purified by high-performance liquid chromatography (HPLC) to greater than 95% purity and confirmed by liquid chromatography mass spectrometry (LC-MS). The sequence was Biot-Ahx-[…]-amide and contained a monomethylated arginine at position 26 (SEQ ID NO.: 14).
Human CARM1 (PRMT4) (NM_199141.1) transcript clone was amplified from an HEK 293 cDNA library, incorporating a flanking 5′ sequence encoding a FLAG tag ([…]) (SEQ ID NO.: 6) fused directly to Ala 2 of CARM1 and 3′ sequence encoding a hexa His sequence ([…]) (SEQ ID NO.: 15) fused directly to Ser 608. The gene sequence encoding isoform1 containing a deletion of amino acids 539-561 was amplified subsequently and subcloned into pFastBacMam (Viva Biotech).
Recombinant baculovirus were generated according to Bac-to-Bac kit instructions (Life Technologies). […] Infections were carried out at 37° C. for 48 hours, harvested by centrifugation, and stored at −80° C. for purification.
Column was washed with 500 mM NaCl in buffer A and Flag-CARM1-His was eluted with 200 ug/ml FLAG peptide in buffer A. Pooled fractions were dialyzed in 20 mM Tris, 150 mM NaCl, 5% glycerol and 1 mM DTT, pH 7.8. The purity of recovered protein was 94.
General Procedure for CARM1 Enzyme Assays on Peptide Substrates.
The assays were all performed in a buffer consisting of 20 mM Bicine (pH=7.6), 1 mM TCEP, 0.005% BSG, and 0.002% Tween 20, prepared on the day of use. Compounds in 100% DMSO (1 ul) were spotted into a polypropylene 384-well V-bottom plates (Greiner) using a Platemate Plus outfitted with a 384-channel head (Thermo Scientific). DMSO (1 ul) was added to Columns 11, 12, 23, 24, rows A-H for the maximum signal control and 1 ul of SAH, a known product and inhibitor of CARM1, was added to columns 11, 12, 23, 24, rows I-P for the minimum signal control. A cocktail (40 ul) containing the CARM1 enzyme was added by Multidrop Combi (Thermo-Fisher). The compounds were allowed to incubate with CARM1 for 30 min at room temperature, then a cocktail (10 ul) containing ^3H-SAM and peptide was added to initiate the reaction (final volume=51 ul). The final concentrations of the components were as follows: CARM1 was 0.25 nM, ^3H-SAM was 30 nM, peptide was 250 nM, SAH in the minimum signal control wells was 1 mM, and the DMSO concentration was 2%. The assays were stopped by the addition of non-radiolabeled SAM (10 ul) to a final concentration of 300 uM, which dilutes the ^3H-SAM to a level where its incorporation into the peptide substrate is no longer detectable. 50 ul of the reaction in the 384-well polypropylene plate was then transferred to a 384-well Flashplate and the biotinylated peptides were allowed to bind to the streptavidin surface for at least 1 hour before being washed once with 0.1% Tween20 in a Biotek ELx405 plate washer. The plates were then read in a PerkinElmer TopCount plate reader to measure the quantity of ^3H-labeled peptide bound to the Flashplate surface, measured as disintegrations per minute (dpm) or alternatively, referred to as counts per minute (cpm).
Where dpm=disintegrations per minute, cmpd=signal in assay well, and min and max are the respective minimum and maximum signal controls.
Where top and bottom are the normally allowed to float, but may be fixed at 100 or 0 respectively in a 3-parameter fit. […]

SMILES | IC50 [nM]
CNCCN(C)Cc1cccc(-c2cc(-c3cn[nH]c3)c3cnn(C(C)C)c3n2)c1 [Compound 192] | 13.1
CNCCN(C)Cc1cccc(-c2cc(-c3c(C)n[nH]c3C)c3cnn(C(C)C)c3n2)c1 [Compound 200] | 16.7
CNCCN(C)Cc1cccc(-c2cc(C(=O)N3CCC(OC)C3)c3cnn(C(C)C)c3n2)c1 (stereo not shown) [Compound 302] | 233
CNCCN(C)Cc1cccc(-c2cc(C(=O)N[C@@H](C)c3ccccc3)c3cn(Cc4ccccc4F)nc3n2)c1 [Compound 305] | 240
CNCCN(C)Cc1cccc(-c2cc(C(=O)NCC3CCOCC3)c3cnn(CC#N)c3n2)c1 [Compound 306] | 243
CC(C)n1cc2c(C(=O)NC3CCOCC3)cc(-c3cccc(CN(C)CCN)c3)nc2n1 [Compound 308] | 254
CNCCN(C)Cc1cccc(-c2cc(C(=O)N(C)CC(F)(F)F)c3cnn(C(C)C)c3n2)c1 [Compound 310] | 283
CNCCN(C)Cc1cccc(-c2cc(C(=O)NC(C)c3ccccc3)c3cn(C4CCOCC4)nc3n2)c1 (stereo not shown) [Compound 312] | 311
CNCCN(C)Cc1cccc(-c2cc(C(=O)N3CCC(F)C3)c3cnn(C(C)C)c3n2)c1 (stereo not shown) [Compound 313] | 312
CNCCN(C)Cc1cccc(-c2cc(C(=O)NC3CCOCC3)c3cnn(CC4CC4)c3n2)c1 [Compound 314] | 334
CNCCN(C)Cc1cccc(-c2cc(C(O)C3CCOCC3)c3cnn(C(C)C)c3n2)c1 (stereo not shown) [Compound 315] | 368
CCOC(=O)c1cc(-c2cccc(CN(C)CCNC)c2)nc2c1cnn2CC(F)(F)F [Compound 316] | 379
CNCCN(C)Cc1cccc(-c2cc(C(=O)NCC3CCOCC3)c3cnn(Cc4cccnc4)c3n2)c1 [Compound 317] | 386
CNCCN(C)Cc1cccc(-c2cc(C(=O)NCC3CCOCC3)c3cnn(Cc4ccccn4)c3n2)c1 [Compound 318] | 398
CNCCN(C)Cc1cccc(-c2cc(C(=O)N(C)C3CCOCC3)c3cnn(C(C)C)c3n2)c1 [Compound 320] | 410
CNCCN(C)Cc1cccc(-c2cc(C(=O)N3CCOCC3)c3cnn(C(C)C)c3n2)c1 [Compound 321] | 453
CNCCN(C)Cc1cccc(-c2cc(C(=O)N3CCSCC3)c3cnn(C(C)C)c3n2)c1 [Compound 322] | 456
Cc1cc(C)c(CNC(=O)c2cc(-c3ccc(CN(C)CCN4CCCC4)cc3)nc3c2cnn3C(C)C)c(=O)[nH]1 [Compound 364] | 50000
Cc1cc(C)c(CNC(=O)c2cc(-c3cccc(CNCCN(C)C)c3)nc3c2cnn3C(C)C)c(=O)[nH]1 [Compound 369] | 501
Cc1cc(C)c(CNC(=O)c2cc(-c3cc(CN(C)CCN)ccc3C)cc3c2cnn3C(C)C)c(=O)[nH]1 [Compound 389] | 232

Continued by falling IC50, values first:

IC50 [nM] | SMILES
203 | CNCCN(C)Cc1cccc(-c2cc(C(=O)N3CCC(F)(F)C3)c3cnn(C(C)C)c3n2)c1 [Compound 299]
168 | CNCCN(C)Cc1cccc(-c2cc(C(=O)N3Cc4ccccc4C3)c3cnn(C(C)C)c3n2)c1 [Compound 291]
139 | CNCCN(C)Cc1cccc(-c2cc(C(=O)NCC3CCOCC3)c3cnn(CC4CC4)c3n2)c1 [Compound 285]
77.3 | CNCCN(C)Cc1cccc(-c2cc(C(=O)NCc3ccccc3Cl)c3cnn(C(C)C)c3n2)c1 [Compound 268]
75.2 | Cc1c(C(=O)NCC2CCOCC2)cc(-c2cccc(CN(C)CCN)c2)cc1N(C)CC1CC1 [Compound 267]
74.1 | CNCCN(C)Cc1cccc(-c2cc(CN(C)OC)c3cnn(C(C)C)c3n2)c1 [Compound 264]
57.3 | CNCCN(C)Cc1cccc(-c2cc(C(=O)N[C@@H](C)c3ccccc3)c3cnn(Cc4cccnc4)c3n2)c1 [Compound 249]
55.5 | CNCCN(C)Cc1cccc(-c2cc(C(=O)NC(C)c3ccccc3)c3cnn(C4CCOCC4)c3n2)c1 (stereo not shown) [Compound 248]
46 | CNCCN(C)Cc1cccc(-c2cc(C(=O)N[C@@H](C)c3ccccc3)c3cn(Cc4cccnc4)nc3n2)c1 [Compound 236]
39.5 | CNCCN(C)Cc1cccc(-c2cc(NCC3CC3)c3cnn(C(C)C)c3n2)c1 [Compound 226]
38.1 | CNCCN(C)Cc1cccc(-c2cc(C(=O)N[C@@H](C)c3ccccc3)c3cnn(Cc4ccccn4)c3n2)c1 [Compound 225]
32.6 | CNCCN(C)Cc1cccc(-c2cc(C(=O)N[C@@H](C)c3ccccc3)c3cn(Cc4ccccn4)nc3n2)c1 [Compound 221]
31.6 | CNCCN(C)Cc1cccc(-c2cc(C(=O)NCC3COC3)c3cnn(C(C)C)c3n2)c1 [Compound 219]
30.9 | CNCCN(C)Cc1cccc(-c2cc(N(CC3CC3)CC3CC3)c3cnn(C(C)C)c3n2)c1 [Compound 218]
29.9 | CNCCN(C)Cc1cccc(-c2cc(C(=O)N[C@@H](C)c3ccccc3)c3cn(Cc4ccncc4)nc3n2)c1 [Compound 216]
25.4 | CNCCN(C)Cc1cccc(-c2cc(C(=O)N[C@@H](C)c3ccccc3)c3cn(Cc4ccccc4)nc3n2)c1 [Compound 213]
19.2 | CC(C)n1ncc2c(C(=O)NCC3COC3)cc(-c3cccc(CN(C)CCN)c3)nc21 [Compound 204]
19.2 | CNCCN(C)Cc1cccc(-c2cc(OCC3CC3)c3cnn(C(C)C)c3n2)c1 [Compound 203]
14.3 | CNCCN(C)Cc1cccc(-c2cc(-c3ccncc3)c3cnn(C(C)C)c3n2)c1 [Compound 196]
12.9 | CNCCN(C)Cc1cccc(-c2cc(Nc3ccncc3)c3cnn(C(C)C)c3n2)c1 [Compound 191]
11.7 | Cc1cc(CNC(=O)c2cc(-c3cccc(CN(C)CCN)c3)nc3c2cnn3C(C)C)no1 [Compound 184]
7.51 | CNCCN(C)Cc1cccc(-c2cc(-c3csc(C)n3)c3cnn(C(C)C)c3n2)c1 [Compound 178]
7.35 | CNCCN(C)Cc1cccc(-c2cc(N3CCCCC3)c3cnn(C(C)C)c3n2)c1 [Compound 177]
